PubChem BioAssay AID2060621 (Molecular Pharmacology Branch, DTP, NCI, 2025)

Test system: 324938-238-R-J1-PDC complex spheroids viability
Test: Anticancer human tumor 324938-238-R-J1-PDC patient-derived bladder carcinoma cell line growth inhibition [CLK]
Details: for IC50: curve of first compound; for viability, T/C: stronger effect = lower value
Text: A high-throughput screen of multi-cell type tumor spheroids was designed to identify active combinations of […] and targeted small molecules. Complex spheroids include a stromal component modeled by human endothelial cells (HUVEC) and fibroblasts modeled by human mesenchymal stem cells (MSCs). The concentration ranges selected for each drug and investigational agent were based upon clinically achievable concentrations if the clinical Cmax of the agent was known.
Compounds. The drugs and investigational agents: cirtuvivint (SM08502; NSC835563), CC-671 (NSC850746), vemurafenib (NSC761431), tapotoclax (NSC804041), sotorasib (NSC818433), adagrasib (NSC831453), MRTX-1133 (NSC836407), BAY2416964 (NSC825713), copanlisib (NSC816437), inavolisib (NSC800729), abemaciclib (NSC768073), osimertinib (NSC779217), entinostat (NSC756642), eltanexor (KPT-8602, NSC794443), venetoclax (NSC766270), ceralasertib (NSC777638), bortezomib (NSC756655), olaparib (NSC753686), talazoparib (NSC767125), alisertib (NSC759677), peposertib (NSC802822), gemcitabine (NSC613327), 5-fluorouracil (NSC19893), SN-38 (NSC673596), oxaliplatin (NSC266046), paclitaxel (NSC125973), and doxorubicin (NSC123127), were obtained from the National Cancer Institute (NCI) Developmental Therapeutics Program Chemical Repository. The FDA-approved anticancer drug set is available from the Developmental Therapeutics Program at https://dtp.cancer.gov/organization/dscb/obtaining/available plates.htm. […] The stock solutions were prepared in dimethyl sulfoxide (DMSO, Sigma-Aldrich, St. Louis, MO, cat. D2650), except for the platinum complexes which were prepared in saline (Quality Biological, Gaithersburg, MD, cat. 114-055-101), at 800-fold the tested concentration and stored at -70 degrees C prior to their use. All drugs and investigational agents were tested over a range starting from a high concentration at or near the clinical Cmax and decreasing in half-log increments. If the clinical Cmax for an agent had not been determined, the highest concentration tested was 10 microM.
Cell Culture. All cells were maintained in an incubator at 37 degrees C and 5% CO2 with 95% humidity. The PDC lines were cultured according to standard operating procedures established by the NCI PDMR. Briefly, all PDCs were thawed and cultured in Matrigel-coated flasks prepared with a working solution of 1X Ham's F-12 nutrient mix, without supplementation (Invitrogen, Waltham, MA, cat. 11765054), 100 U/mL penicillin-streptomycin (Invitrogen, cat. 15140122), and 2.5% Matrigel (Corning Inc., Corning, NY, cat. 354248) for the first three passages. The 947758-054-R-J2-PDC line was cultured in 6B/Colon 1A media, which includes advanced DMEM/F-12 (Thermo Fisher Scientific, cat. 12634028), 10 mM HEPES (Thermo Fisher Scientific, cat. 15630080), 1X GlutaMAX supplement (Thermo Fisher Scientific, cat. 35050061), 0.1 mg/mL primocin (InvivoGen, cat. ant-pm-2), 10% defined fetal bovine serum, heat inactivated (HyClone Laboratories Inc., cat. SH30070.03HI), 1.25 mM N-Acetyl-L-cysteine (Sigma-Aldrich, cat. A9165), 10 mM nicotinamide (Sigma-Aldrich, cat. N0636), 1X B-27 supplement (Thermo Fisher Scientific, cat. 17504044), 1X N-2 supplement (Thermo Fisher Scientific, cat. 17502048), and 10 microM Y-27632 dihydrochloride (Tocris Bioscience, cat. 1254). The 876862-298-R-J1-PDC was cultured in 6E media, which includes all 6B/Colon 1A media components plus 50% L-WRN conditioned media (ATCC, cat. CRL-3276), 50 ng/mL recombinant human EGF recombinant protein (hEGF; Thermo Fisher Scientific, cat. PHG0311), 10 ng/mL recombinant human fibroblast growth factor 10 (hGFG-10; PeproTech, cat. 100-26), 1 ng/mL recombinant human fibroblast growth factor 2 (hFGF-2; PeproTech, cat. 100-18B), and 1 µM prostaglandin E2 (PGE2; Tocris, cat. 2296). The 227483-062-R1-J1-PDC line was cultured in Panc media, containing all 6E components except hFGF-2, with the addition of 500 nM SB-431542 (Selleckchem, cat. S1067) and 10 nM gastrin (Tocris, cat. 3006). […]

[1] = second compound 0.0316 µM, first compound 0.0316 µM
[2] = second compound 0.0316 µM, first compound 0.1 µM
[3] = second compound 0.0316 µM, first compound 0.316 µM
[4] = second compound 0.0316 µM, first compound 1 µM
[5] = second compound 0.0316 µM, first compound 3.16 µM
[6] = second compound 0.0316 µM, first compound 10 µM
[7] = second compound 0.1 µM, first compound 0.0316 µM
[8] = second compound 0.1 µM, first compound 0.1 µM
[9] = second compound 0.1 µM, first compound 0.316 µM
[10] = second compound 0.1 µM, first compound 1 µM
[11] = second compound 0.1 µM, first compound 3.16 µM
[12] = second compound 0.1 µM, first compound 10 µM
[13] = second compound 0.316 µM, first compound 0.0316 µM
[14] = second compound 0.316 µM, first compound 0.1 µM
[15] = second compound 0.316 µM, first compound 0.316 µM
[16] = second compound 0.316 µM, first compound 1 µM
[17] = second compound 0.316 µM, first compound 3.16 µM
[18] = second compound 0.316 µM, first compound 10 µM
[19] = second compound 1 µM, first compound 0.0316 µM
[20] = second compound 1 µM, first compound 0.1 µM
[21] = second compound 1 µM, first compound 0.316 µM
[22] = second compound 1 µM, first compound 1 µM
[23] = second compound 1 µM, first compound 3.16 µM
[24] = second compound 1 µM, first compound 10 µM
[25] = second compound 3.16 µM, first compound 0.0316 µM
[26] = second compound 3.16 µM, first compound 0.1 µM
[27] = second compound 3.16 µM, first compound 0.316 µM
[28] = second compound 3.16 µM, first compound 1 µM
[29] = second compound 3.16 µM, first compound 3.16 µM
[30] = second compound 3.16 µM, first compound 10 µM
[31] = second compound 10 µM, first compound 0.0316 µM
[32] = second compound 10 µM, first compound 0.1 µM
[33] = second compound 10 µM, first compound 0.316 µM
[34] = second compound 10 µM, first compound 1 µM
[35] = second compound 10 µM, first compound 3.16 µM
[36] = second compound 10 µM, first compound 10 µM
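Further: viability read after seven days of drug exposure.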
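Wherever viability, T/C is given: 100% = DMSO vehicle control wells.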

## CCCS(=O)(=O)Nc1ccc(F)c(C(=O)c2c[nH]c3ncc(-c4ccc(Cl)cc4)cc23)c1F + CN1CCN(c2cc(C(=O)Nc3cc4cc(-c5cnn(C)c5)ccc4cn3)ccn2)CC1
Second compound 0.0316 µM
  IC50: > 10000 nM
Second compound 0.1 µM
  IC50: 8330 nM
Second compound 0.316 µM
  IC50: < 31.6 nM
Second compound 1 µM
  IC50: < 31.6 nM
Second compound 3.16 µM
  IC50: < 31.6 nM
Second compound 10 µM
  IC50: < 31.6 nM
[1]
  viability, T/C: 76.9%
[2]
  viability, T/C: 96%
[3]
  viability, T/C: 92.7%
[4]
  viability, T/C: 114%
[5]
  viability, T/C: 102%
[6]
  viability, T/C: 58.3%
[7]
  viability, T/C: 61.2%
[8]
  viability, T/C: 61.3%
[9]
  viability, T/C: 52%
[10]
  viability, T/C: 65.7%
[11]
  viability, T/C: 60.1%
[12]
  viability, T/C: 39.1%
[13]
  viability, T/C: 24.1%
[14]
  viability, T/C: 27.6%
[15]
  viability, T/C: 24.5%
[16]
  viability, T/C: 27.2%
[17]
  viability, T/C: 26%
[18]
  viability, T/C: 24.8%
[19]
  viability, T/C: 1.58%
[20]
  viability, T/C: 1.65%
[21]
  viability, T/C: 1.22%
[22]
  viability, T/C: 0.96%
[23]
  viability, T/C: 1.9%
[24]
  viability, T/C: 0.6%
[25]
  viability, T/C: 0.52%
[26]
  viability, T/C: 0.23%
[27]
  viability, T/C: 0.3%
[28]
  viability, T/C: 0.13%
[29]
  viability, T/C: 0.14%
[30]
  viability, T/C: 0.21%
[31]
  viability, T/C: 0.56%
[32]
  viability, T/C: 0.19%
[33]
  viability, T/C: 0.19%
[34]
  viability, T/C: 0.31%
[35]
  viability, T/C: 0.18%
[36]
  viability, T/C: 0.62%

## COC1C=CCC(C)C(C)S(=O)(=O)NC(=O)c2ccc3c(c2)N(CC2CCC21)CC1(CCCc2cc(Cl)ccc21)CO3 (centres undefined) + CN1CCN(c2cc(C(=O)Nc3cc4cc(-c5cnn(C)c5)ccc4cn3)ccn2)CC1
Second compound 0.0316 µM
  IC50: 440 nM
Second compound 0.1 µM
  IC50: 292 nM
Second compound 0.316 µM
  IC50: < 31.6 nM
Second compound 1 µM
  IC50: < 31.6 nM
Second compound 3.16 µM
  IC50: < 31.6 nM
Second compound 10 µM
  IC50: < 31.6 nM
[1]
  viability, T/C: 86.6%
[2]
  viability, T/C: 87.2%
[3]
  viability, T/C: 57.6%
[4]
  viability, T/C: 27.6%
[5]
  viability, T/C: 17.9%
[6]
  viability, T/C: 11.9%
[7]
  viability, T/C: 57.9%
[8]
  viability, T/C: 52.9%
[9]
  viability, T/C: 50.4%
[10]
  viability, T/C: 25.9%
[11]
  viability, T/C: 18.4%
[12]
  viability, T/C: 13.9%
[13]
  viability, T/C: 26.2%
[14]
  viability, T/C: 26%
[15]
  viability, T/C: 23.1%
[16]
  viability, T/C: 13.1%
[17]
  viability, T/C: 10.5%
[18]
  viability, T/C: 8.58%
[19]
  viability, T/C: 1.66%
[20]
  viability, T/C: 1.72%
[21]
  viability, T/C: 1.35%
[22]
  viability, T/C: 0.96%
[23]
  viability, T/C: 0.86%
[24]
  viability, T/C: 0.63%
[25]
  viability, T/C: 0.44%
[26]
  viability, T/C: 0.47%
[27]
  viability, T/C: 0.28%
[28]
  viability, T/C: 0.21%
[29]
  viability, T/C: 0.22%
[30]
  viability, T/C: 0.36%
[31]
  viability, T/C: 0.19%
[32]
  viability, T/C: 0.17%
[33]
  viability, T/C: 0.21%
[34]
  viability, T/C: 0.19%
[35]
  viability, T/C: 0.25%
[36]
  viability, T/C: 0.25%
